Values joined by “and” are separate entries in the source; they are usually repeats but may differ in a detail not shown here. Identical values can stand only once. “Also recorded” adds a separate entry of the source. Like-named read-outs stand apart in the source and are kept apart here. Marks after values point to notes of the source that are not given here.
Columns and labels:
Brine shrimp assay = test: Brine shrimp assay; set-up: species or system Artemia franciscana; conditions: Artemia franciscana (brine shrimp), in vivo, read-out: Toxicity Brine shrimp (Artemia franciscana) (LC50)
Artemia franciscana = test: Brine shrimp assay; conditions: in vivo
[1] = tested on: colon tumor cells (HCT-8 strain), central nervous system tumor cells (SF295 strain) and leukemia cells (HL-60 strain); set-up: method as in PMID 19084293; conditions: HCT-8, SF295 and HL-60; read-out: cytotoxicity IC50; cited from earlier work
[2] = tested on: leukemia cells (HL-60 strain); set-up: method as in PMID 19084293; conditions: read-out: IC50 growth of leukemia cells; cited from earlier work
[3] = ABTS radical-scavenging activity; format: biochemical; conditions: compounds tested at 250 µM, mean ± standard deviation, n = 3
Description: The ABTS assay used herein was based on the method of Re et al. with slight modifications. Substances at concentrations of 250 µM, BHT or BHA were added to dilute ABTS solution and the absorbance at […] was measured. The antioxidant activity was calculated using the equation: % inhibition = 100 × (1 − sample abs/control abs).

[4] = DPPH radical-scavenging activity; format: biochemical; conditions: compounds tested at 250 µM, mean ± standard deviation, n = 3
Description: The measurement of the scavenger activity of DPPH• was carried out according to the method of Molineux with modifications. Substances at 250 µM were added, at an equal volume, to the methanol solution of DPPH• ([…]). After 15 min at room temperature, the absorbance was recorded at 517 nm (sample abs). The experiment was repeated three times. BHT, BHA were used as controls. Values denote percentage of DPPH free radical inhibition. The antioxidant activity was calculated using the equation: % inhibition = 100 × (1 − sample abs/control abs).

tumor cell lines = conditions: cited from earlier work
[5] = tested on: Mouse embryonic fibroblast cells (3T3L1 line); test: Cell viability assay (alamar blue); format: cell-based; conditions: ‡ >50 µg/mL, read-out: Toxicity Mouse embryonic fibroblast cells (3T3L1 line) (IC50)
Description: The cytotoxicity of 4-NC and derivatives of 4-NC 1–8 to mouse embryonic fibroblast line 3T3L1 was evaluated using alamar blue to measure cell survival/proliferation. The substances at different concentrations (12.5, 25 and 50 µM) were separately incubated with cells and the number of viable cells was counted after 24, 48 and 72 h. […] O,O-Dibenzyl 4-NC (1) was not active (i.e. not toxic to A. franciscana) in the brine shrimp assay (Table 1).
3T3-L1 cells (mouse embryonic fibroblasts) were obtained from the Cell Bank of Rio de Janeiro, Brazil and were maintained in Dulbecco’s Modified Eagle Medium (DMEM) which was supplemented with 10% fetal bovine serum (FBS), penicillin (100 U/mL) and streptomycin (100 U/mL). The cells were incubated at 37 °C in a humidified atmosphere containing 5% of CO2.
The cytotoxicity of 4-NC and its semi-synthetic derivatives 1–8 to the 3T3L1 mouse embryonic fibroblast cell line fibroblasts was determined by the alamar blue method as described by Nakayama and co-workers. The alamar blue assay is a colorimetric assay involving the cellular reduction of resazurin to resorufin. Briefly, adherent cells (5 × 10^3 cells/well) were grown in 96-well tissue culture plates and exposed to substances (50, 25 and 12.5 μM) for 24, 48 and 72 h. After incubation, the alamar blue solution (10 µL of 0.4% alamar blue (resazurin) in PBS) was added and the cells were incubated for 2 h at 37 °C. Fluorescence was measured (excitation at 545 nm and emission at 595 nm) and expressed as a percentage of the cells in the control after background fluorescence was subtracted. The assays were performed in triplicate.

[6] = tested on: 3T3L1 mouse embryonic fibroblast cell line; test: Cellular antioxidant activity (oxidation of DCFH-DA); format: cell-based; set-up: inhibition of the oxidation of DCFH-DA in 3T3L1 cells: concentration or dose not given beside the values; conditions: for inhibition of the oxidation of DCFH-DA in 3T3L1 cells: over the observation period of 60 min; for loss of antioxidant activity after storage: DMSO solution stored at −20 °C for 30 days
Description: These tests evaluate the reducing effect of a given substance on the radical species formed in situ during these assays leading to a decrease in color versus controls that is measured spectrophotometrically. […] Thus, at a concentration of 250 µM, 4-NC inhibited DPPH• and ABTS+• by 97% and 95%, respectively. Mono-O-substituted 4-NC derivatives 2–5 inhibited ABTS+• by 89–93%. […] The antioxidant activity was also evaluated in mouse embryonic 3T3L1 fibroblasts. In this assay DCFH-DA (2',7'-dichlorofluorescein diacetate) is hydrolyzed by intracellular esterases and then oxidized by reactive oxygen species (ROS) to the fluorescent compound 2'-7'-DCF. An active antioxidant substance can inhibit the transformation of fatty acids to fatty acid hydroperoxides in the cell membranes and thereby inhibit the oxidation of DCFH-DA.
The antioxidant activity of 4-NC and semi-synthetic derivatives of 4-NC was evaluated on the 1st and 30th days after dissolving the substances in DMSO at a concentration of 10 mM and storage in a freezer at −20 °C. This experiment permitted the evaluation of the relative stability of the antioxidant activity of 4-NC, derivatives of 4-NC, BHT and BHA. Thus, cellular antioxidants were evaluated using the mouse embryonic fibroblast 3T3L1 cell line. […] The presence of mono-O or di-O,O substituent groups in the 4-NC derivatives can confer stability relative to 4-NC. Such chemical stability is highly desirable when contemplating the use of such substances in cosmetic and pharmaceutical formulations and foods. Here, 4-NC dissolved in DMSO lost more than 80% of its antioxidant activity after 30 days in the freezer.
Intracellular ROS production was detected using the non-fluorescent cell permeating compound, 2'7'-dichlorofluorescein diacetate (DCF-DA), as described by Wolfe and Liu. DCF-DA is hydrolyzed by intracellular esterases and then oxidized by hydroperoxides into the fluorescent compound, 2'-7'-DCF. 3T3-L1 cells were seeded at a density of 6 × 10^4 cells/well in a 96-well microplate in 100 μL of growth medium. 24 h after seeding, the growth medium was removed and the wells were washed with PBS. Then, a 10 μM solution of DCFH-DA dissolved in Hank’s buffer (100 μL) was added to wells and incubated for 30 min at 37 °C and 5% CO2. The cells were washed first with PBS (100 μL) then EEP (100 µL) and samples having different concentrations were added. The fluorescence was immediately measured at an excitation wavelength of 485 nm and emission wavelength of 520 nm over 60 min at 5 min intervals. Controls with/without DCFH-DA were prepared and subjected to analogous procedures. Quercetin, BHA and BHT were used as positive controls of antioxidant activity.

[7] = tested on: melanoma cell lines (SK-Mel-28, 103 and 147); set-up: method as in PMID 19059332; conditions: read-out: IC50 in vitro growth of melanoma cell lines; cited from earlier work
normal fibroblast cells = tested on: normal fibroblast cells; set-up: method as in PMID 19059332; conditions: cited from earlier work
Plasmodium falciparum = tested on: Plasmodium falciparum; set-up: method as in PMID 17568942; conditions: cited from earlier work
Plasmodium berghei = conditions: cited from earlier work
rat brain homogenates = tested on: rat brain homogenates; set-up: method as in ref 8 = [8]; 8. De Freitas P.C.D. Atividade Antioxidante de Espécies Medicinais da Família Piperaceae: Pothomorphe umbellata (L.) Miq. e Piper regnelli (Miq.) C. DC Ph.D. Thesis University of São Paulo (USP) São P; conditions: inhibition of spontaneous lipoperoxidation; cited from earlier work
KB tumor cells = tested on: KB tumor cells; set-up: method as in PMID 10364848; conditions: cited from earlier work
human topoisomerase I = tested on: human topoisomerase I; set-up: method as in PMID 10364848; conditions: cited from earlier work
[8] = † >500 µg/mL, 4 and 5 tested separately
[9] = Mus musculus, 3T3-L1, alamar blue

Compound | LC50 (Brine shrimp assay; [8]) | cytotoxic activity against Artemia franciscana in the brine shrimp assay (Artemia franciscana) | ABTS (%) percentage of inhibition [3] | DPPH• (%) percentage of inhibition [4] | IC50 [5, 9] | other results
C=CC(C)(CC/C=C(\C)CCC=C(C)C)c1ccc(O)c(OC)c1 (centres unmarked) [Compound 5, 2O-monomethyl 4-NC derivative] | 1200 µM | weak cytotoxic activity |  |  |  | IC50 [1]: 43.9 to 63.1 µM
C=CC(C)(CC/C=C(\C)CCC=C(C)C)c1ccc(OC)c(O)c1 (centres unmarked) [Compound 4, 1O-monomethyl derivative of 4-NC] | 600 µM | weak cytotoxic activity |  |  |  | IC50 [2]: 57.4 µM
C=CC(C)(CC/C=C(\C)CCC=C(C)C)c1ccc(OCc2ccccc2)c(O)c1 (centres unmarked) [Compound 2, 1-O-benzyl 4-NC] | 1000 µM | weak cytotoxic activity | 91.12 ± 0.68 ^a % | 44.20 ± 0.01 ^b % |  | activity against tumor cells (tumor cell lines): inactive
C=CC(C)(CCC1OC1(C)CCC1OC1(C)C)c1ccc(OC(C)=O)c(OC(C)=O)c1 (centres unmarked) [Compound 8] |  |  | 0.31 ± 0.01 ^c % | 7.39 ± 3.66 ^c % | > 116 µM | inhibition of the oxidation of DCFH-DA in 3T3L1 cells [6]: ≥ 20%
C=CC(C)(CC/C=C(\C)CCC=C(C)C)c1ccc(O)c(OCc2ccccc2)c1 (centres unmarked) [Compound 3, 2O-monobenzyl derivative of 4-NC] | > 1200 µM | weak cytotoxic activity | 93.31 ± 0.30 ^a % | 48.09 ± 1.33 ^b % | > 124 µM | IC50 (tumor cell lines; read-out: cytotoxicity IC50 against four tumor cell lines, four tumor cell lines): 25.1 to 41.7 µM
COc1ccc(O)c(C(C)(C)C)c1 [BHA, butylated hydroxyanisole, reference compound] |  |  | 94.71 ± 0.47 ^a % |  |  | DPPH• (%) percentage of inhibition ([4]; 250 µM): 98% and 97.97 ± 0.10 ^a %; loss of antioxidant activity after storage ([6]; 3T3L1 cells): ≥ 70%
4-nerolidylcatechol [Compound 4-NC] |  |  |  |  |  | ABTS (%) percentage of inhibition ([3]; 250 µM): 95% and 94.82 ± 0.22 ^a %; DPPH• (%) percentage of inhibition ([4]; 250 µM): 97% and 96.53 ± 0.50 ^a %; IC50 ([5]; alamar blue): 31.4 µM and 31.5 µM; loss of antioxidant activity after storage ([6]; 3T3L1 cells): more than 80%; inhibition of the oxidation of DCFH-DA in 3T3L1 cells [6]: ≥ 20%; IC50 [7]: 20 to 40 µM; IC50 (normal fibroblast cells): 50 µM; in vitro activity against Plasmodium falciparum (Plasmodium falciparum): high in vitro activity; in vivo activity in Plasmodium berghei-infected mice (Plasmodium berghei): low in vivo activity; also recorded: little activity; in vitro antioxidant activity relative to α-tocopherol (vitamin E) (rat brain homogenates): approximately 20 times; toxicity in vitro to KB tumor cells (KB tumor cells): toxic; inhibition of human topoisomerase I (human topoisomerase I): inhibits; IC50 (tumor cell lines): 19.7 to 38.8 µM
C=CC(C)(CC/C=C(\C)CCC=C(C)C)c1ccc(OC(=O)c2ccccc2)c(OC(=O)c2ccccc2)c1 (centres unmarked) [Compound 6, O,O-dibenzoyl 4-NC] |  | moderately toxic | 8.83 ± 0.23 ^b % | 3.46 ± 0.63 ^c % | > 95.8 µM | LC50 (Brine shrimp assay): 69 µM; inhibition of the oxidation of DCFH-DA in 3T3L1 cells [6]: ≥ 20%; activity against tumor cells (tumor cell lines): inactive
O=c1c(O)c(-c2ccc(O)c(O)c2)oc2cc(O)cc(O)c12 [Quercetin, quercetin, reference compound] |  |  | 99.7 ± 0.02 ^a % | 91.4 ± 0.12 ^a % |  | loss of antioxidant activity after storage ([6]; 3T3L1 cells): ≥ 70%
C=CC(C)(CC/C=C(\C)CCC=C(C)C)c1ccc(OCc2ccccc2)c(OCc2ccccc2)c1 (centres unmarked) [Compound 1, O,O-Dibenzyl 4-NC] | > 1000 µM | not active | 7.97 ± 2.72 ^b % | 4.35 ± 0.71 ^c % | > 101 µM | activity against tumor cells (tumor cell lines): inactive
Cc1cc(C(C)(C)C)c(O)c(C(C)(C)C)c1 [BHT, butylated hydroxytoluene, reference compound] |  |  | 93.13 ± 0.18 ^a % |  |  | DPPH• (%) percentage of inhibition ([4]; 250 µM): 17% and 16.84 ± 0.81 ^c %; increase of antioxidant activity after storage ([6]; DMSO solution, 30 days of storage in the freezer, 3T3L1 cells): approximately 100%

Reference: PMC6269653, “Stability and Antioxidant Activity of Semi-synthetic Derivatives of 4-Nerolidylcatechol” (Molecules, 2012)
